The source of these data is patent US20090191173A1, “Induction Of Neurogenesis And Stem Cell Therapy In Combination With Copolymer 1” (priority 2004, published 2009).

Test [1] has as its system neural progenitor cells (NPCs). As to the kind of experiment: Neuronal differentiation of GFP-expressing NPCs co-cultured with differently activated microglia. It counts as cell-based, mouse. To be noted: absence of microglia, insulin 0.02 mg/ml. As to the method:
(iii) Neural progenitor cell (NPC) culture. Coronal sections (2 mm thick) of tissue containing the subventricular zone of the lateral ventricle were obtained from the brains of adult C57B16/J mice. […] After centrifugation at 110×g for 15 min at room temperature, the tissue was mechanically dissociated by pipette trituration. […] Cell proliferation rates and cell survival in vitro were determined by staining with 5-bromo-2′-deoxyuridine (BrdU, 2.5 μM; Sigma-Aldrich, St. Louis). For quantification of live and dead cells, live cultures were stained with 1 μg/ml propidium iodide (Molecular Probes, Invitrogen, Carlsbad, Calif.) and 1 μg/ml Hoechst 33342 (Sigma-Aldrich, St. Louis), and cells were counted using Image-Pro (Media Cybernetics, Silver Spring, Md.), as described (Hsieh et al., 2004) (vi) Immunocytochemistry. […]

Test [2] concerns neural progenitor cells (NPCs). As to the kind of experiment: Oligodendrocyte differentiation (NG2, RIP, GalC) of NPCs co-cultured with activated microglia. To be noted: 5 days, presence of insulin. The test is classed as cell-based, mouse. Here is the method: (iii) Neural progenitor cell (NPC) culture. Coronal sections (2 mm thick) of tissue containing the subventricular zone of the lateral ventricle were obtained from the brains of adult C57B16/J mice. The tissue was minced and then incubated for digestion at 37° C., 5% CO2 for 45 min in Earle's balanced salt solution containing 0.94 mg/ml papain (Worthington, Lakewood, N.J.) and 0.18 mg/ml of L-cysteine and EDTA. After centrifugation at 110×g for 15 min at room temperature, the tissue was mechanically dissociated by pipette trituration. Cells obtained from single-cell suspensions were plated (3500 cells/cm^2) in 75-cm^2 Falcon tissue-culture flasks (BD Biosciences, Franklin Lakes, N.J.), in NPC-culturing medium [Dulbecco's modified Eagles's medium (DMEM)/F12 medium (Gibco/Invitrogen, Carlsbad, Calif.) containing 2 mM L-glutamine, 0.6% glucose, 9.6 μg/ml putrescine, 6.3 ng/ml progesterone, 5.2 ng/ml sodium selenite, 0.02 mg/ml insulin, 0.1 mg/ml transferrin, 2 μg/ml heparin (all from Sigma-Aldrich, Rehovot, Israel), fibroblast growth factor-2 (human recombinant, 20 ng/ml), and epidermal growth factor (human recombinant, 20 ng/ml; both from Peprotech, Rocky Hill, N.J.)]. Spheres were passaged every 4-6 days and replated as single cells. Green fluorescent protein (GFP)-expressing neural progenitor cells (NPCs) were obtained as previously described (Pluchino et al., 2003). […]

“insulin: insulin added to differentiation medium (0.02 mg/ml)”: in test [1], the “numbers of GFP+/β-III-tubulin+ cells in NPC cultures” value is recorded as “did not increase”. Also, in test [2], the “NG2+ cells” value was “did not affect the incidence of NG2^+ cells”.
